Test results: patent publication US20240189266A1, “Lactoyl Amino Acids for the Treatment of Metabolic Disease” (The Board of Trustees of the Leland Stanford Junior …, priority 2021, published 2024)

Columns and labels:
[1] = Plasma Lac-Phe level after intraperitoneal injection; type: in vivo; conditions: C57BL/6J DIO, mouse, 50 mg/kg IP, DIO mice, mean±SEM, read-out: plasma levels 30 min post injection
Experimental: General animal information. Animal experiments were performed according to procedure approved by the Stanford University Administrative Panel on Laboratory Animal Care (APLAC). Mice were maintained in 12-hr light-dark cycles at 22° C. and ˜50% relative humidity and fed a standard irradiated rodent chow diet. Where indicated, high-fat diet (D12492, Research Diets 60% kcal from fat) was used. C57BL/6J (stock no. 000664) and C57BL/6J DIO mice (stock no. 380050) were purchased from Jackson Laboratory. C57BL/6NCrl (stock no. 027) mice were purchased from Charles River Laboratory. Whole body CNDP2 knockout mice (catalog number, C57BL/6NCrl-Cndp2em1(IMPC)Mbp/Mmucd, RRID: MMRRC_043492-UCD) were obtained from the Mutant Mouse Regional Resource Center, a NCRR-NIH funded strain repository. For in vivo injection of mice with compounds including Lac-Phe, lactate, and phenylalanine, compounds were dissolved in 18:1:1 (by volume) of saline/Kolliphor EL (Sigma Aldrich)/DMSO. Compounds were administered to mice daily via intraperitoneal injections at 5 μl/g body weight at the indicated doses. For all injection experiments, mice were mock injected with the vehicle for 3-5 days until body weights have stabilized. For glucose tolerance tests, mice were fasted for 6 hours then injected with glucose at 10 μl/g body weight. A dose of 1 g/kg was used for the GTT of vehicle and Lac-Phe treated obese mice. […]

[2] = Acute Lac-Phe administration to DIO mice in metabolic chambers; type: in vivo; conditions: single 50 mg/kg IP
Experimental: (§1) General animal information. Animal experiments were performed according to procedure approved by the Stanford University Administrative Panel on Laboratory Animal Care (APLAC). Mice were maintained in 12-hr light-dark cycles at 22° C. and ˜50% relative humidity and fed a standard irradiated rodent chow diet. Where indicated, high-fat diet (D12492, Research Diets 60% kcal from fat) was used. C57BL/6J (stock no. 000664) and C57BL/6J DIO mice (stock no. 380050) were purchased from Jackson Laboratory. C57BL/6NCrl (stock no. 027) mice were purchased from Charles River Laboratory. Whole body CNDP2 knockout mice (catalog number, C57BL/6NCrl-Cndp2em1(IMPC)Mbp/Mmucd, RRID: MMRRC_043492-UCD) were obtained from the Mutant Mouse Regional Resource Center, a NCRR-NIH funded strain repository. For in vivo injection of mice with compounds including Lac-Phe, lactate, and phenylalanine, compounds were dissolved in 18:1:1 (by volume) of saline/Kolliphor EL (Sigma Aldrich)/DMSO. Compounds were administered to mice daily via intraperitoneal injections at 5 μl/g body weight at the indicated doses. For all injection experiments, mice were mock injected with the vehicle for 3-5 days until body weights have stabilized. For glucose tolerance tests, mice were fasted for 6 hours then injected with glucose at 10 μl/g body weight. A dose of 1 g/kg was used for the GTT of vehicle and Lac-Phe treated obese mice.

[3] = Chronic 10-day Lac-Phe administration to DIO mice (food intake, body weight, GTT, tissue weights); type: in vivo
Experimental: as §1

[4] = 7-day comparison of Lac-Phe with lactate and phenylalanine in DIO mice; type: in vivo; conditions: 50 mg/kg IP daily, 13-week male DIO mice
Experimental: as §1

[5] = 9-day Lac-Phe treatment of 18 week DIO mice (FIG. 17); type: in vivo; conditions: 50 mg/kg/day IP
Experimental: as §1

[6] = test system: AgRP neurons in the arcuate nucleus of hypothalamus (ARH); assay: Whole-cell patch-clamp slice electrophysiology, AgRP neurons; type: cell-based, mice
Experimental: (§2) Slice electrophysiology studies. Several genetic mouse strains were used for electrophysiological recordings from identified neural populations. These included AgRP-IRES-Cre/Rosa26-LSL-tdTOMATO mice for recordings from AgRP neurons in the arcuate nucleus of hypothalamus (ARH); POMC-CreER/Rosa26-LSL-tdTOMATO mice (with 200 mg/kg tamoxifen induction at 8-12 weeks) were used for recordings from POMC neurons in the ARH; SF1-Cre/Rosa26-LSL-tdTOMATO mice were used for recordings from SF1 neurons in the ventromedial hypothalamus (VMH); TPH2-CreER/Rosa26-LSL-tdTOMATO mice (with 200 mg/kg tamoxifen induction at 8-12 weeks) were used for recording from 5-HT neurons in the dorsal raphe nucleus (DRN). Mice (males and females, 8-16 weeks old) were anesthetized with isoflurane and transcardially perfused with a modified ice-cold sucrose-based cutting solution (pH 7.4; containing 10 mM NaCl, 25 mM NaHCO3, 195 mM sucrose, 5 mM glucose, 2.5 mM KCl, 1.25 mM NaH2PO4, 2 mM sodium pyruvate, 0.5 mM CaCl2, and 7 mM MgCl2, bubbled continuously with 95% O2 and 5% CO2). The mice were then decapitated, and the entire brain was removed and immediately submerged in the cutting solution. Coronal slices (220 μm) were cut with a Microm HM 650V vibratome (Thermo Scientific). Brain slices containing the desired region (ARH, VMH, or DRN) were collected for each corresponding mouse, and recordings were made at levels throughout this brain region. The slices were recovered for ˜30 minutes at 32° C. and then maintained at room temperature for another 1 hour in oxygenated (95% O2 and 5% CO2) artificial cerebrospinal fluid (ACSF, pH 7.4; containing 126 mM NaCl, 2.5 mM KCl, 2.4 mM CaCl2, 1.2 mM NaH2PO4, 1.2 mM MgCl2, 11.1 mM glucose, and 21.4 mM NaHCO3) before recording.
(§3) Slices were transferred to the recording chamber at 32° C. and perfused continuously with oxygenated ACSF at a flow rate of 1.8-2.0 ml/min. […] Recordings were made using a MultiClamp 700B amplifier (Axon Instruments), sampled using Digidata 1440A, and analyzed offline with pClamp 10.3 software (Axon Instruments). Series resistance was monitored during the recording, and the values were generally <10 MO and were not compensated. The liquid junction potential was monitored and corrected. […] To ensure each recorded neuron receive same amount of Lac-Phe, the neurons located on the surface of the slice were selected to record and the puff pipette was always put at a 100 μm horizontal and 100 μm vertical distance from the recorded neurons. […] Each neuron was recorded for at least 1 minute at baseline and only the neurons with stable baseline were used to test the Lac-Phe treatment. […]

[7] = test system: POMC neurons in the ARH; assay: Whole-cell patch-clamp slice electrophysiology, POMC neurons; type: cell-based, mice
Experimental: as §2, with “Coronal slices (220 μm) were cut with a Microm HM 650V vibratome (Thermo Scientific). Brain slices containing the desired region (ARH, VMH, or DRN) were collected for each corresponding mouse, and recordings were made at levels throughout this brain region. The slices were recovered for ˜30 minutes at 32° C. and then maintained at room temperature for another 1 hour in oxygenated (95% O2 and 5% CO2) artificial cerebrospinal fluid (ACSF, pH 7.4; containing 126 mM NaCl, 2.5 mM KCl, 2.4 mM CaCl2, 1.2 mM NaH2PO4, 1.2 mM MgCl2, 11.1 mM glucose, and 21.4 mM NaHCO3) before recording.” left out
as §3

[8] = test system: serotonin (5-HT)-positive neurons in the dorsal raphe nuclei (DRN); assay: Whole-cell patch-clamp slice electrophysiology, 5-HT neurons; type: cell-based, mice; conditions: 50 μM
Experimental: (§4) Slice electrophysiology studies. Several genetic mouse strains were used for electrophysiological recordings from identified neural populations. These included AgRP-IRES-Cre/Rosa26-LSL-tdTOMATO mice for recordings from AgRP neurons in the arcuate nucleus of hypothalamus (ARH); POMC-CreER/Rosa26-LSL-tdTOMATO mice (with 200 mg/kg tamoxifen induction at 8-12 weeks) were used for recordings from POMC neurons in the ARH; SF1-Cre/Rosa26-LSL-tdTOMATO mice were used for recordings from SF1 neurons in the ventromedial hypothalamus (VMH); TPH2-CreER/Rosa26-LSL-tdTOMATO mice (with 200 mg/kg tamoxifen induction at 8-12 weeks) were used for recording from 5-HT neurons in the dorsal raphe nucleus (DRN). […]
(§5) Slices were transferred to the recording chamber at 32° C. and perfused continuously with oxygenated ACSF at a flow rate of 1.8-2.0 ml/min. […] Recordings were made using a MultiClamp 700B amplifier (Axon Instruments), sampled using Digidata 1440A, and analyzed offline with pClamp 10.3 software (Axon Instruments). Series resistance was monitored during the recording, and the values were generally <10 MO and were not compensated. The liquid junction potential was monitored and corrected. […] Each neuron was recorded for at least 1 minute at baseline and only the neurons with stable baseline were used to test the Lac-Phe treatment. […]

[9] = test system: SF1-positive neurons of the ventromedial hypothalamic nucleus (VMH); assay: Whole-cell patch-clamp slice electrophysiology, SF1 neurons; type: cell-based, mice; conditions: 50 μM
Experimental: as §4, §5

[10] = test system: RAW264.7 cells; assay: In vitro Lac-Phe production assay with added lactate, RAW264.7; type: cell-based, murine; conditions: lactate 25 mM in conditioned media
Experimental: Cell line cultures. All cell lines were obtained from ATCC and grown at 37° C. with 5% CO2. RAW 264.7, HEK293T, HEK293A, C2C12, F442A, 3T3-L1, Caco2, and SW48 were grown in Dulbecco's modified Eagle's medium (DMEM) with 10% fetal bovine serum (FBS) and penicillin/streptomycin (pen/strep). AML-12 cells were grown in DMEM with 10% FBS and pen/strep supplemented with Insulin-Transferrin-Selenium. T84 cells were grown in Dulbecco's modified Eagle's medium/nutrient mixture F-12 (DMEM/F-12) with 5% FBS and pen/strep.
In vitro Lac-Phe Production assay. Cells were plated in 12-well plates at 70-80% confluence. The next day, cells were washed two times with PBS and incubated in 0.5 ml serum free media. After overnight incubation, 400 μl of media was removed and 20 μl of 1 M hydrochloride added to acidify the media and protonate Lac-Phe. 400 μl of ethyl acetate was added into each sample and vortexed for 30 seconds to extract Lac-Phe into the organic layer. 300 μl from the top layer was transferred to a new Eppendorf tube and dried down under a stream of nitrogen. The residue was re-suspended in 100 ul of an 80:20 mixture of acetonitrile/water. Cells were kept on ice to harvest the lysate. 150 μl of PBS was added into each well and the cells scraped into an Eppendorf tube. This step was repeated again to ensure all cells have been harvested. […]

[11] = test system: primary peritoneal macrophages; assay: In vitro Lac-Phe production assay with added lactate, primary macrophages; type: cell-based, mice; conditions: lactate 25 mM in conditioned media
Experimental: Primary peritoneal macrophage isolation. Mice were injected with 2 ml of 3% brewer thioglycollate medium (Fisher, B111716) and the macrophage elicitation allowed to proceed for 3 days. For the macrophage isolation, mice were euthanized with CO2 and the abdominal skin peeled back to expose the peritoneal wall. 10 ml of ice-cold calcium and magnesium free DPBS was injected into the peritoneal cavity, taking care not to puncture the organs. The mice were gently massaged and the fluid aspirated from the peritoneum using the same syringe and needle. The fluid was dispensed into a 50 ml falcon tube on ice. Cells were then centrifuged at 4° C. for 10 minutes at 400×g. The supernatant was discarded and the cells re-suspended in cold DMEM/F-12 containing 10% FBS and pen/strep. Cells were allowed to adhere in the incubator for at least 2 hours then washed three times in warm PBS to remove non-adherent cells. Fresh media was added to the cells and experiments performed within 1-2 days after the isolation.
In vitro Lac-Phe Production assay. Cells were plated in 12-well plates at 70-80% confluence. The next day, cells were washed two times with PBS and incubated in 0.5 ml serum free media. After overnight incubation, 400 μl of media was removed and 20 μl of 1 M hydrochloride added to acidify the media and protonate Lac-Phe. […]

[12] = 50 mg/kg/day IP, 10 days, DIO mice

C[C@H](O)C(=O)N[C@@H](Cc1ccccc1)C(=O)O [Lac-Phe, N-lactoyl-phenylalanine]
concentration at 30 min [1]: 3.8 µM | suppression of food intake compared to vehicle-treated mice ([2]; 12 h post-administration): 52% | carbon dioxide production (VCO2) ([2]; 12 hr): did not alter | oxygen consumption (VO2) ([2]; 12 hr): did not alter | respiratory exchange ratio (RER) ([2]; 12 hr): did not alter | food intake over 12 h post-administration ([2]; mean±SEM (vehicle 6.4±0.6)): 3.0±1.0 kcal/mouse | ambulatory activity ([2]; vs vehicle): not different between groups | brown fat (BAT) mass vs vehicle [3, 12]: −41% | change in total body weight [3, 12]: −7% | epididymal fat (eWAT) mass vs vehicle [3, 12]: −20% | subcutaneous inguinal fat (iWAT) mass vs vehicle [3, 12]: −41% | total lean mass, estimated by weights of other organs [3, 12]: unaffected | reduction in body weight ([3]; 50 mg/kg/day IP, 10 days, DIO mice, mean±SEM): -2.8 ± 1.1 g | food intake, chronic treatment ([3]; 50 mg/kg/day IP, 10 days, DIO mice, mean±SEM (vehicle 2.9±0.1)): 2.1±0.1 g/mouse/day | glucose tolerance test ([3]; day 10, 1 g/kg glucose, 6 h fast, vs vehicle): improved glucose clearance | body weight vs control [4]: suppressed | food intake vs control [4]: suppressed | glucose homeostasis (glucose tolerance test) ([5]; 1 g/kg glucose, 6 h fast): improves glucose homeostasis | body weight ([5]; 9-day, 18 week male DIO mice): suppresses | appetite (cumulative food intake) ([5]; 18 week male DIO mice): suppresses | effect on AgRP neurons (firing frequency, resting membrane potential) ([6]; 50 μM): rapidly inhibited | hyperpolarization of AgRP neurons in presence of TTX, DNQX, D-AP5, bicuculline ([6]; 50 μM with inhibitor cocktail): persisted | AgRP neurons hyperpolarized (response ratio) ([6]; all concentrations tested, baseline or inhibitor-treated): > 70% | concentration showing inhibitory activity on AgRP neurons ([6]; dose response, lowest active concentration): ≥ 1 µM | effect on POMC neurons (firing frequency, depolarization) ([7]; 50 μM): rapidly activate | depolarization of POMC neurons in presence of inhibitor cocktail ([7]; 50 μM with inhibitor cocktail): persisted | concentration required to activate POMC neurons ([7]; dose response): at least 20 μM | excitability of 5-HT-positive neurons [8]: No effect | excitability of SF1-positive neurons [9]: No effect

C[C@H](O)C(=O)[O-].[Na+] [lactate, sodium L-lactate]
body weight vs control [4]: identical to vehicle treated mice | food intake vs control [4]: identical to vehicle treated mice | increase of extracellular levels of Lac-Phe [10]: +85% | increase of extracellular levels of Lac-Phe [11]: +200%

N[C@@H](Cc1ccccc1)C(=O)O [phenylalanine, L-Phenylalnine]
body weight vs control [4]: identical to vehicle treated mice | food intake vs control [4]: identical to vehicle treated mice
